Assay results reported in US12097213B2, “Sequential treatment of cancers using 6-thio-dG, checkpoint inhibitors and radiation therapy” (The Board of Regents of the University of Texas System, priority 2020, dated 2024).

Tests used:
[1] = system: DCs co-cultured with MC38 cells; experiment: Detection of EdU-labeled tumor DNA in bone marrow derived dendritic cells; assay type: cell-based, mouse; settings: MC38 labeled with 25 μM EdU, 1 μM 6-thio-dG
Procedure: Detection of DNA in Bone Marrow Derived Dendritic Cells. Cells were labeled with EdU as described previously (Min et al., 2019). Briefly, 100,000 MC38 cells were seeded to 6-well plate and labeled with 25 μM EdU. Two days later, cells were washed out and treated with 1 μM 6-thio-dG for 24 hrs. Cells were washed out again and co-cultured with BMDCs for overnight. Next day, DCs were sorted out with magnetic beads, washed, fixed and cytospun. Slides were then stained with 6-carboxytetramethlyrhodamine fluorescent azide (Invitrogen) in fresh homemade EdU-staining solution (PBS containing 1 mM CuSO4, 2 mM ascorbic acid) for 30 min. Slides were then washed vigorously with PBS for at least 1 hr, and then telomere FISH steps using a FAM-TelG probe were followed as described in “Telomere dysfunction Induced Foci (TIF) and micronuclei assays” method parts. Images were captured at 63× magnification with an Axio Imager Z2 equipped with an automatic metaphase capture system (Coolcubel camera) and analyzed with ISIS software (Metasystems).

CT26 tumor cells = experiment: CT26 tumor growth and treatment in mice; assay type: in vivo, mouse; settings: BALB/C mice; 3 mg/kg, three days treatment (days 5, 6, 7)
Procedure: (§1) Tumor growth and treatment. A total of 5×10^5 MC38, 5×10^5 CT26 or 1×10^6 LLC cells were inoculated subcutaneously into right dorsal flanks of the mice in 100 μL phosphate buffered saline (PBS). Tumor-bearing mice were randomly grouped into treatment groups when tumors grew to around 100 mm^3. For 6-thio-dG single treatment, 3 mg/kg 6-thio-dG was intraperitoneally given on days 7, 8 and 9 in MC38 tumor and LLC tumor and on days 5, 6, 7 for CT26 tumor. For CSF1R, NKL.1, CD4+ and CD8+ T cell depletion, 200 μg of antibodies were intraperitoneally injected 1 day before treatment initiation and then twice a week for 2 weeks. For PD-L1 blockade combination therapy in MC38 model, 6-thio-dG was given on day 10 and day 11, 50 μg PD-L1 was intraperitoneally injected on day 13 and 17. For PD-L1 blockade combination therapy in LLC model, 6-thio-dG was given on day 4, 5, 6, 10 and 11, 200 μg PD-L1 was intraperitoneally injected on day 8 and 13. Tumor volumes were measured by the length (a), width (b) and height (h) and calculated as tumor volume=abh/2.

[2] = system: bone marrow derived DCs (BMDCs); experiment: In vitro co-culture of BMDC with 6-thio-dG pretreated tumor cells and T cells; assay type: cell-based, mouse
Procedure: In vitro co-culture of bone marrow dendritic cells (BMDC) and T cells. Single-cell suspensions of bone marrow (BM) cells were collected from tibias and femurs of C57BL/6 mice. The BM cells were placed in 10 cm dish and cultured with complete RPMI 1640 medium containing 20 ng/mL recombinant mouse GM-CSF (BioLegend). Fresh medium with was added into the culture on day 3 and day 6. The BMDCs were harvested Day 7. CD8+ T cells were isolated from lymph nodes and spleens of OT-1 transgenic mice with a negative CD8+ T cell isolation kit (Stemcell). MC38-OVA cells pretreated with 200 nM 6-thio-dG for 4 hrs. Then the drug was washed out, tumor cells were continued to culture for 72 hrs and were harvested on the same day as BMDC harvest. Then MC38-OVA cells were co-cultured with BMDC for overnight. Supernatant was collected for IFN-β ELISA test (PBL). BMDCs were sorted with CD11c+ positive selection kit (Stemcell) and co-cultured with OT-1 CD8+ T cells for 48 hrs. Supernatants were collected and IFN-γ was measured by cytometric bead array assay (BD Biosciences).
Quantitative real-time PCR. Real-time PCR was performed with SsoAdvanced™ Universal SYBR® Green Supermix (Bio-Rad) according to the manufacturer's instructions with different primer sets (human MT-CO1, forward primer 5′-[…]-3′ (SEQ ID NO: 3), reverse primer 5′-CGGGGCATTCCG GATAGGCC-3′ (SEQ ID NO: 4); human18s rRNA, forward primer 5′-[…]-3′ (SEQ ID NO: 5), reverse primer 5′-[…]-3′ (SEQ ID NO: 6); mouse IFN-β, forward primer 5′-ATGAGTGGTGGTTGCAGGC-3′ (SEQ ID NO: 7), reverse primer 5′-[…]-3′ (SEQ ID NO: 8); mouse GAPDH, forward primer 5′-CATCAAGAA GGTGGTGAAGC-3′ (SEQ ID NO: 9), reverse primer 5′-[…]-3′) (SEQ ID NO: 10) mouse GAPDH was used as the internal control. 2^−ΔΔCt method was used to calculate relative expression changes.

MC38 tumor cells = experiment: MC38 tumor growth and treatment in mice; assay type: in vivo, mouse
Procedure: as §1

TBK1 = experiment: Immunoblotting of DCs after co-culture; assay type: cell-based, mouse; settings: co-culture 6 hrs with MC38 pretreated with 0.2 μM or 1 μM 6-thio-dG
Procedure: Immunoblotting. BMDC and MC38 treatment were same as “In vitro co-culture of bone marrow dendritic cells”. 6 hrs after co-culture, DC was isolated with CD11c+ positive selection kit (Stemcell). Protein sample preparation and immunoblot procedures were performed as previously described (Liu et al., 2019). Proteins were detected with rabbit monoclonal antibodies for pSTING (Cell signaling, 72971), STING (Cell signaling, 50494), pTBK1 (Cell signaling, 5483), TBK1 (Cell signaling, 3504). Protein loading was determined with antibodies against with Cyclophilin A (Cell signaling, 2175). Anti-rabbit (1:2000 in 5% BSA) was used for secondary antibody (Cell signaling, 7074). X-ray film (GeneMate, F-9024-8X10) was used to develop the membranes. Clarity Max Western ECL Substrate (Biorad, 1705062) or Supersignal West PicoPlus Chemiluminescent Substrate (Thermoscientific, 34577) was used for chemiluminescent western blot.

Compound: Nc1nc2c(ncn2[C@H]2C[C@H](O)[C@@H](CO)O2)c(=S)[nH]1 [6-thio-dG, 6-thio-2′-deoxyguanosine]
- telomere co-localization with EdU in EdU+ DCs [1]: increase
- tumor growth (CT26 tumor cells): significant tumor growth delay
- IFN-γ production by OT-1 CD8+ T cells (cross-priming capacity of DCs) ([2]; MC38-OVA pretreated with 200 nM 6-thio-dG, DC/T cell co-culture 48 hrs, CBA): significant increase
- IFN-β in DCs, WT vs Tmem173KO ([2]; MC38 pretreated with 200 nM 6-thio-dG, qPCR): induced IFN-β production in DCs in a STING-dependent manner
- IFN-β production by DCs ([2]; co-culture with tumor cells pretreated with 200 nM 6-thio-dG, ELISA): significantly increased
- therapeutic effect on tumor growth with CD4+ T cell depletion (MC38 tumor cells; 200 μg anti-CD4, 3 mg/kg, days 7, 8, 9): marginal influence
- therapeutic effect on tumor growth with CD8+ T cell depletion (MC38 tumor cells; 200 μg anti-CD8, 3 mg/kg, days 7, 8, 9): completely abolished
- tumor growth with macrophage depletion (MC38 tumor cells; 200 μg anti-CSF1R, 3 mg/kg, days 7, 8, 9): worked even better
- therapeutic effect with NK cell depletion (MC38 tumor cells; 200 μg anti-NK1.1, 3 mg/kg, days 7, 8, 9): did not see an impact
- tumor growth (MC38 tumor cells; Batf3 deficient mice, 3 mg/kg, days 7, 8, 9): partially delayed tumor growth but was significantly less effective compared with WT mice
- mice tumor free (MC38 tumor cells; Batf3−/− mice): none
- anti-tumor effect (MC38 tumor cells; Ifnar1−/− mice, 3 mg/kg, days 7, 8, 9): abolished
- tumor growth (MC38 tumor cells; Mb21d1KO MC38 tumor cells in C57BL/6 mice, 3 mg/kg, days 7, 8, 9): still controlled tumor growth
- tumor growth (MC38 tumor cells; Myd88−/− mice, 3 mg/kg, days 7, 8, 9): controlled tumor growth well
- therapeutic effect on tumor growth (MC38 tumor cells; Rag1 knock out mice, 3 mg/kg, days 7, 8, 9): completely diminished
- tumor growth (MC38 tumor cells; Tmem173KO MC38 tumor cells in C57BL/6 mice, 3 mg/kg, days 7, 8, 9): still controlled tumor growth
- tumor growth (efficacy) (MC38 tumor cells; Tmem173−/− mice, 3 mg/kg, days 7, 8, 9): completely lost efficacy
- tumor growth (MC38 tumor cells; WT C57BL/6 mice, 3 mg/kg daily for three days (days 7, 8, 9), i.p., vs control tumor): significantly reduced
- mice completely tumor free (MC38 tumor cells; WT mice): 60%
- re-challenge with MC38 tumor (memory response) (MC38 tumor cells; cured mice rested 5 weeks, 10 times more tumor cells, opposite flank): spontaneously rejected re-challenged MC38 tumors
- tumor volume / tumor growth in advanced tumors (MC38 tumor cells; tumor sizes 150-200 mm^3, 6-thio-dG 3 mg/kg days 10, 11, 50 μg anti-PD-L1 days 13 and 17): difficult to control
- TBK1 phosphorylation in DCs (TBK1): increase
